For 17 molecules, IC50 results are on record in patent US10640506B2, “Cyclobutyl substituted pyrrolopyridine and pyrrolopyrimidines derivatives as JAK inhibitors” (Incyte Corporation, priority 2010, dated 2020).

Counter-ions that a name gives are not always drawn. Like-named read-outs stand apart in the source and are kept apart here.

One test addresses T1, JAK2 (a.a. 828-1132) (Homo sapiens, UniProt O60674).
T1 construct: JAK2 (a.a. 828-1132); His tag (N)
Nature of the test: In vitro JAK kinase assay (HTRF, phosphorylation of biotinylated peptide), JAK2. Type of test: biochemical. The note with it: 1 mM ATP, read-out: JAK2 IC50. The method, then:
Compounds herein were tested for inhibitory activity of JAK targets according to the following in vitro assay described in Park et al., Analytical Biochemistry 1999, 269, 94-104. The catalytic domains of human JAK1 (a.a. 837-1142) and JAK2 (a.a. 828-1132) with an N-terminal His tag were expressed using baculovirus in insect cells and purified. The catalytic activity of JAK1 and JAK2 was assayed by measuring the phosphorylation of a biotinylated peptide. The phosphorylated peptide was detected by homogenous time resolved fluorescence (HTRF). […] Reactions were carried out at room temperature for 1 hour and then stopped with 20 μL 45 mM EDTA, 300 nM SA-APC, 6 nM Eu-Py20 in assay buffer (Perkin Elmer, Boston, Mass.). Binding to the Europium labeled antibody took place for 40 minutes and HTRF signal was measured on a Fusion plate reader (Perkin Elmer, Boston, Mass.). See Tables A-F for data related to compounds of the Examples (at 1 mM). Data is indicated as ranges, wherein “+” is less than 10 nM; “++” is 10 nM to 25 nM; “+++” is greater than 25 nM to 100 nM; and “++++” is greater than 100 nM. Greater than 25 nM to 100 nM specifies a range with a lower endpoint “at greater than 25 nM” and an upper endpoint at 100 nM.

Test [1] deals with human JAK1 (a.a. 837-1142) (Homo sapiens, UniProt P23458). As to the kind of experiment: In vitro JAK kinase assay (HTRF, phosphorylation of biotinylated peptide), JAK1. Particulars: 1 mM ATP, read-out: JAK1 IC50. Type of test: biochemical. The method, then: Compounds herein were tested for inhibitory activity of JAK targets according to the following in vitro assay described in Park et al., Analytical Biochemistry 1999, 269, 94-104. The catalytic domains of human JAK1 (a.a. 837-1142) and JAK2 (a.a. 828-1132) with an N-terminal His tag were expressed using baculovirus in insect cells and purified. The catalytic activity of JAK1 and JAK2 was assayed by measuring the phosphorylation of a biotinylated peptide. The phosphorylated peptide was detected by homogenous time resolved fluorescence (HTRF). […] Reactions were carried out at room temperature for 1 hour and then stopped with 20 μL 45 mM EDTA, 300 nM SA-APC, 6 nM Eu-Py20 in assay buffer (Perkin Elmer, Boston, Mass.). Binding to the Europium labeled antibody took place for 40 minutes and HTRF signal was measured on a Fusion plate reader (Perkin Elmer, Boston, Mass.). […] Data is indicated as ranges, wherein “+” is less than 10 nM; “++” is 10 nM to 25 nM; “+++” is greater than 25 nM to 100 nM; and “++++” is greater than 100 nM. Greater than 25 nM to 100 nM specifies a range with a lower endpoint “at greater than 25 nM” and an upper endpoint at 100 nM.
Chain of human JAK1 (a.a. 837-1142) (P23458 849-1154): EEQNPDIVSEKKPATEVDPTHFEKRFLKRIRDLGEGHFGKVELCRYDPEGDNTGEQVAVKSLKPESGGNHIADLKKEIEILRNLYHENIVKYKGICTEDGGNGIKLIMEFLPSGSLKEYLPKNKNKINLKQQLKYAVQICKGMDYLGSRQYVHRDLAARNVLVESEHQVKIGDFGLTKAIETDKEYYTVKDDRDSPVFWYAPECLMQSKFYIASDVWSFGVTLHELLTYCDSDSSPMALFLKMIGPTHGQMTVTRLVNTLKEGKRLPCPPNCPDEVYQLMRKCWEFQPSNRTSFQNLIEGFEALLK

T1 sequence (O60674 828-1132): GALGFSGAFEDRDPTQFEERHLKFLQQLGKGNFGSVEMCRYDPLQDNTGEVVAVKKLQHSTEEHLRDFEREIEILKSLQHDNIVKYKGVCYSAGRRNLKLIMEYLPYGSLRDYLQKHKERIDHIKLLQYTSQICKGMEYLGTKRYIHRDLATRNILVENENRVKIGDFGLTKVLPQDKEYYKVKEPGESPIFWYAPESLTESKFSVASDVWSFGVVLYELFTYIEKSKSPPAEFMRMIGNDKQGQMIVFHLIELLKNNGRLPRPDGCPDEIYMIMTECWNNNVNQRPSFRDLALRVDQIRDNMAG

As for `N#CC[C@]1(n2cc(-c3ncnc4[nH]ccc34)cn2)C[C@@H](N2CCN(C(=O)c3cc(F)cc(F)c3)CC2)C1` [Example 8a, {cis-3-[4-(3,5-difluorobenzoyl)piperazin-1-yl]-1-[4-(7H-pyrrolo[2,3-d]pyrimidin-4-yl)-1H-pyrazol-1-yl]cyclobutyl}acetonitrile], the concentration for half-maximal inhibition (IC50) was 25 to 100 nM at JAK2 (a.a. 828-1132) (Table A) and below 10 nM in test [1] (Table A).
For the molecule `N#CC[C@]1(n2cc(-c3ncnc4[nH]ccc34)cn2)C[C@H](N2CCN(C(=O)c3cc(F)cc(F)c3)CC2)C1` [Example 8b, {trans-3-[4-(3,5-difluorobenzoyl)piperazin-1-yl]-1-[4-(7H-pyrrolo[2,3-d]pyrimidin-4-yl)-1H-pyrazol-1-yl]cyclobutyl}acetonitrile], the IC50 (at JAK2 (a.a. 828-1132) (Table B); in test [1] (Table B)) was below 10 nM throughout.
In the case of `N#CC[C@]1(n2cc(-c3ncnc4[nH]ccc34)cn2)C[C@@H](N2CCN(C(=O)c3cc(F)cnc3Cl)CC2)C1` [Example 9a, {cis-3-{4-[(2-chloro-5-fluoropyridin-3-yl)carbonyl]piperazin-1-yl}-1-[4-(7H-pyrrolo[2,3-d]pyrimidin-4-yl)-1H-pyrazol-1-yl]cyclobutyl}acetonitrile], the IC50 is above 100 nM on JAK2 (a.a. 828-1132) (Table A) and 10 to 25 nM in test [1] (Table A).
Take `N#CC[C@]1(n2cc(-c3ncnc4[nH]ccc34)cn2)C[C@H](N2CCN(C(=O)c3cc(F)cnc3Cl)CC2)C1` [Example 9b, {trans-3-{4-[(2-chloro-5-fluoropyridin-3-yl)carbonyl]piperazin-1-yl}-1-[4-(7H-pyrrolo[2,3-d]pyrimidin-4-yl)-1H-pyrazol-1-yl]cyclobutyl}acetonitrile]: the IC50 is 10 to 25 nM on JAK2 (a.a. 828-1132) (Table B) and below 10 nM in test [1] (Table B).
As to `N#CC[C@]1(n2cc(-c3ncnc4[nH]ccc34)cn2)C[C@@H](N2CCN(C(=O)c3cncc(F)c3)CC2)C1` [Example 10a, {cis-3-{4-[(5-fluoropyridin-3-yl)carbonyl]piperazin-1-yl}-1-[4-(7H-pyrrolo[2,3-d]pyrimidin-4-yl)-1H-pyrazol-1-yl]cyclobutyl}acetonitrile], the values for the half-inhibitory concentration (IC50) (at JAK2 (a.a. 828-1132) (Table A); in test [1] (Table A)) were above 100 nM and below 10 nM, respectively.
As for `N#CC[C@]1(n2cc(-c3ncnc4[nH]ccc34)cn2)C[C@H](N2CCN(C(=O)c3cncc(F)c3)CC2)C1` [Example 10b, {trans-3-{4-[(5-fluoropyridin-3-yl)carbonyl]piperazin-1-yl}-1-[4-(7H-pyrrolo[2,3-d]pyrimidin-4-yl)-1H-pyrazol-1-yl]cyclobutyl}acetonitrile tris(trifluoroacetate) Salt], the IC50 on JAK2 (a.a. 828-1132) (Table B) was 25 to 100 nM; in test [1] (Table B) it was below 10 nM.
Consider `N#CC[C@]1(n2cc(-c3ncnc4[nH]ccc34)cn2)C[C@@H](N2CCN(C(=O)c3ccnc(C(F)F)c3F)CC2)C1` [Example 11a, {cis-3-{4-[2-(difluoromethyl)-3-fluoroisonicotinoyl]piperazin-1-yl}-1-[4-(7H-pyrrolo[2,3-d]pyrimidin-4-yl)-1H-pyrazol-1-yl]cyclobutyl}acetonitrile], for which the figures for the half-maximal inhibitory concentration (IC50) (on JAK2 (a.a. 828-1132) (Table A); in test [1] (Table A)) were above 100 nM and 10 to 25 nM, respectively.
On to `N#CC[C@]1(n2cc(-c3ncnc4[nH]ccc34)cn2)C[C@H](N2CCN(C(=O)c3ccnc(C(F)F)c3F)CC2)C1` [Example 11b, {trans-3-{4-[2-(difluoromethyl)-3-fluoroisonicotinoyl]piperazin-1-yl}-1-[4-(7H-pyrrolo[2,3-d]pyrimidin-4-yl)-1H-pyrazol-1-yl]cyclobutyl}acetonitrile], for which the half-inhibitory concentration (IC50) was 25 to 100 nM on JAK2 (a.a. 828-1132) (Table B) and below 10 nM in test [1] (Table B).
Consider `N#CC[C@]1(n2cc(-c3ncnc4[nH]ccc34)cn2)C[C@@H](N2CCN(C(=O)c3cc(F)cc(C#N)c3)CC2)C1` [Example 12a, 3-[(4-{cis-3-(cyanomethyl)-3-[4-(7H-pyrrolo[2,3-d]pyrimidin-4-yl)-1H-pyrazol-1-yl]cyclobutyl}piperazin-1-yl)carbonyl]-5-fluorobenzonitrile], for which the 50% inhibitory concentration (IC50) at JAK2 (a.a. 828-1132) (Table A) is 25 to 100 nM; in test [1] (Table A) it was below 10 nM.
On to `N#CC[C@]1(n2cc(-c3ncnc4[nH]ccc34)cn2)C[C@H](N2CCN(C(=O)c3cc(F)cc(C#N)c3)CC2)C1` [Example 12b, 3-[(4-{trans-3-(cyanomethyl)-3-[4-(7H-pyrrolo[2,3-d]pyrimidin-4-yl)-1H-pyrazol-1-yl]cyclobutyl}piperazin-1-yl)carbonyl]-5-fluorobenzonitrile], for which the results for the IC50 (at JAK2 (a.a. 828-1132) (Table B); in test [1] (Table B)) were 10 to 25 nM and below 10 nM, respectively.
As for `N#CC[C@]1(n2cc(-c3ncnc4[nH]ccc34)cn2)C[C@@H](N2CCN(C(=O)c3nc(C(F)(F)F)cs3)CC2)C1` [Example 13a, [cis-1-[4-(7H-pyrrolo[2,3-d]pyrimidin-4-yl)-1H-pyrazol-1-yl]-3-(4-{[4-(trifluoromethyl)-1,3-thiazol-2-yl]carbonyl}piperazin-1-yl)cyclobutyl]acetonitrile], the half-inhibitory concentration (IC50) on JAK2 (a.a. 828-1132) (Table A) was 25 to 100 nM; in test [1] (Table A), below 10 nM.
Consider `N#CC[C@]1(n2cc(-c3ncnc4[nH]ccc34)cn2)C[C@H](N2CCN(C(=O)c3nc(C(F)(F)F)cs3)CC2)C1` [Example 13b, [trans-1-[4-(7H-pyrrolo[2,3-d]pyrimidin-4-yl)-1H-pyrazol-1-yl]-3-(4-{[4-(trifluoromethyl)-1,3-thiazol-2-yl]carbonyl}piperazin-1-yl)cyclobutyl]acetonitrile], for which the half-inhibitory concentration (IC50) on JAK2 (a.a. 828-1132) (Table B) was 25 to 100 nM; in test [1] (Table B), below 10 nM.
Consider `N#CC[C@]1(n2cc(-c3ncnc4[nH]ccc34)cn2)C[C@@H](N2CCN(C(=O)c3cncc(C(F)(F)F)n3)CC2)C1` [Example 14a, [cis-1-[4-(7H-pyrrolo[2,3-d]pyrimidin-4-yl)-1H-pyrazol-1-yl]-3-(4-{[6-(trifluoromethyl)pyrazin-2-yl]carbonyl}piperazin-1-yl)cyclobutyl]acetonitrile], for which the figures for the concentration for half-maximal inhibition (IC50) (at JAK2 (a.a. 828-1132) (Table A); in test [1] (Table A)) were 25 to 100 nM and below 10 nM, respectively.
In the case of `N#CC[C@]1(n2cc(-c3ncnc4[nH]ccc34)cn2)C[C@H](N2CCN(C(=O)c3cncc(C(F)(F)F)n3)CC2)C1` [Example 14b, [trans-1-[4-(7H-pyrrolo[2,3-d]pyrimidin-4-yl)-1H-pyrazol-1-yl]-3-(4-{[6-(trifluoromethyl)pyrazin-2-yl]carbonyl}piperazin-1-yl)cyclobutyl]acetonitrile], the IC50 is 25 to 100 nM on JAK2 (a.a. 828-1132) (Table B) and below 10 nM in test [1] (Table B).
Regarding `N#CC[C@]1(n2cc(-c3ncnc4[nH]ccc34)cn2)C[C@@H](N2CCN(C(=O)c3ccc(F)c(F)c3)CC2)C1` [Example 15a, {cis-3-[4-(3,4-difluorobenzoyl)piperazin-1-yl]-1-[4-(7H-pyrrolo[2,3-d]pyrimidin-4-yl)-1H-pyrazol-1-yl]cyclobutyl}acetonitrile], the IC50 was 25 to 100 nM on JAK2 (a.a. 828-1132) (Table A) and below 10 nM in test [1] (Table A).
Take `N#CC[C@]1(n2cc(-c3ncnc4[nH]ccc34)cn2)C[C@H](N2CCN(C(=O)c3ccc(F)c(F)c3)CC2)C1` [Example 15b, {trans-3-[4-(3,4-difluorobenzoyl)piperazin-1-yl]-1-[4-(7H-pyrrolo[2,3-d]pyrimidin-4-yl)-1H-pyrazol-1-yl]cyclobutyl}acetonitrile]: the values for the 50% inhibitory concentration (IC50) (on JAK2 (a.a. 828-1132) (Table B); in test [1] (Table B)) were 10 to 25 nM and below 10 nM, respectively.
As to `N#CC[C@]1(n2cc(-c3ncnc4[nH]ccc34)cn2)C[C@@H](N2CCN(Cc3c(F)ccc(F)c3Cl)CC2)C1` [Example 16a, {cis-3-[4-(2-chloro-3,6-difluorobenzyl)piperazin-1-yl]-1-[4-(7H-pyrrolo[2,3-d]pyrimidin-4-yl)-1H-pyrazol-1-yl]cyclobutyl}acetonitrile], the IC50 is 10 to 25 nM at JAK2 (a.a. 828-1132) (Table A) and below 10 nM in test [1] (Table A).
